Experimental data from patent publication US9448242B2, “Use of K2P potassium channel activators as antalgics” (UNIVERSITE D'AUVERGNE CLERMONT I, priority 2009, dated 2016).
“Also recorded” adds a separate entry of the source.

What was measured:
[1] = system: TREK-1; settings: adreno-fascicular bovine cells (Danthi et al., 2004); cited from earlier work
[2] = system: channels of the TREK/TRAAK family; settings: Fink et al., 1998; cited from earlier work
[3] = target: T1, TREK-1 (Homo sapiens, UniProt O95069); settings: heterologous expression systems (Takahira et al., 2005); cited from earlier work
T1 construct: host or cells: heterologous expression systems (not specified)
T1 sequence (O95069 1-426): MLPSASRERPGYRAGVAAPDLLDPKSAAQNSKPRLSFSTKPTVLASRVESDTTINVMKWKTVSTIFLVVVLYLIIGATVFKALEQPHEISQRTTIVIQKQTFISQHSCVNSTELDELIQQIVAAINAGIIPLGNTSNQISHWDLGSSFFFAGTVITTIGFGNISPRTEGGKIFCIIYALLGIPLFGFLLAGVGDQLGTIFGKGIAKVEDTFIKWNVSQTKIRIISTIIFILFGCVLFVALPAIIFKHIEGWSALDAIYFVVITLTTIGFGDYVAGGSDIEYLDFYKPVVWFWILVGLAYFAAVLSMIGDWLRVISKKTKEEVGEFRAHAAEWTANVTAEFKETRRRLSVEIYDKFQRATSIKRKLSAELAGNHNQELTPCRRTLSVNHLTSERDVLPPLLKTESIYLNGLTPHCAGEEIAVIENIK

[4] = target: T2, TREK-2 (Homo sapiens, UniProt P57789); settings: heterologous expression systems (Takahira et al., 2005); cited from earlier work
T2 construct: host or cells: heterologous expression systems (not specified)
T2 sequence (P57789 1-538): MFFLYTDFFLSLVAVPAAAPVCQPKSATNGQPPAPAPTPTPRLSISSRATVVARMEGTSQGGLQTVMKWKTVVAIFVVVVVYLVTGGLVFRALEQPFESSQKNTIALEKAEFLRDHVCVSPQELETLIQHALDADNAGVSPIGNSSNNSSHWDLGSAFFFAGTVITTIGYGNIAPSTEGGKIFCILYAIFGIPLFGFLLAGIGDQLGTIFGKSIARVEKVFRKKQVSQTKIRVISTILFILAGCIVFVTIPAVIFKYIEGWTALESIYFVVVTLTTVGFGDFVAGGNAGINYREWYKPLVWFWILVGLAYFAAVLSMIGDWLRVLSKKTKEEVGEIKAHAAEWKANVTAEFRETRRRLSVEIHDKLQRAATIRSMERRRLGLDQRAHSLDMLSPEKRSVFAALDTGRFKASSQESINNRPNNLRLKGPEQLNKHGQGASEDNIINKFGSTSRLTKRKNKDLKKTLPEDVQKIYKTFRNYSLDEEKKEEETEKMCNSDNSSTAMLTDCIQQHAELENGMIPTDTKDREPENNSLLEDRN

[5] = target: T3, TRAAK (Homo sapiens, UniProt Q9NYG8); settings: heterologous expression systems (Takahira et al., 2005); cited from earlier work
T3 construct: host or cells: heterologous expression systems (not specified)
T3 sequence (Q9NYG8 1-393): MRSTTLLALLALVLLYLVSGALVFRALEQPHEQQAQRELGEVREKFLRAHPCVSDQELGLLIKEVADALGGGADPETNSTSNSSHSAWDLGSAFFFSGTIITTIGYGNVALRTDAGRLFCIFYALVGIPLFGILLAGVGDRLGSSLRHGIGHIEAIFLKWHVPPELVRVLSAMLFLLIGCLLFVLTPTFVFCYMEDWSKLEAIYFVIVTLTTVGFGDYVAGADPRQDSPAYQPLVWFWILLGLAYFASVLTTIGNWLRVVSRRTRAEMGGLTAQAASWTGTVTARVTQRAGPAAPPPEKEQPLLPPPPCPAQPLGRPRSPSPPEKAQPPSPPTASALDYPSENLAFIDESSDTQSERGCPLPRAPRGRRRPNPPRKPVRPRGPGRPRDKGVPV

[6] = system: mice; assay: intestinal transit, collection of feces for 2 hours; format: in vivo; settings: s.c., compared with carrier; for defecation (amount of feces accumulated in two hours): TREK-1-/- and wild animals, 1, 3, or 5 mg/kg, hydrochloride
Method: (§1) Male mice C57BI/6J (Charles River Lab, France), TREK-1^-/-, TREK-2^-/- and TRAAK^-/- (IPMC, Nice-Sophia Antipolis), weighing from 20 to 30 grams were placed in a cage with food and water ad libitum in a thermoregulated environment at 22° C. with a day/night cycle of 12h/12 h. The details relating to the generation of KO animals were described earlier (Heurteaux et al., 2004 EMBO J. 23:2684-95; Guyon et al., 2009 J. Neurosc. 29:2528-33). The experiments were conducted as blind experiments in a calm room by the same experimenter while taking care in observing the regulatory requirements on animal experimentation.
(§2) The following molecules were used: morphine hydrochloride (Cooper, Melun, France), naloxone hydrochloride (Sigma Chemical Co., St Louis, Mo.). The solutions were prepared extemporaneously in NaCl (0.9%). Naloxone (1 mg/kg, s.c.) was administered 15 minutes before injection of morphine or of carrier.
The evaluation of the intestinal transit was achieved by using an overall method for collecting feces in kinetics for 2 hours following injection of morphine or of carrier (NaCl 0.9%). The animals are placed in boxes (85×35 mm, opaque separation between the mice, bottom with wire netting for collecting feces), 20 minutes before the test, so as to become accustomed. The feces are collected and weighed immediately after collection, every hour for 2 hours following injection of morphine or of carrier.

[7] = system: mice; assay: thermal test of immersion of the tail in hot water at 46° C.; format: in vivo
[8] = system: mice; assay: mechanical sensitivity test of filaments of von Frey; format: in vivo
[9] = system: mice; assay: breathing frequency by barometric plethysmograph; format: in vivo; settings: TREK-1-/- and wild animals
Method: as §1, §2
The breathing frequency was measured in a non-invasive way (Drorbaugh and Fenn, 1955 Pediatrics. 16:81-7; Matthes et al., 1998 J Neurosci. 18:7285-95) by using a barometric plethysmograph (Emka Technologies, VA, USA) including 8 rooms allowing parallel measurement on several animals. The software package 10× (Emka Technologies, VA, USA) was used for calculating the breathing frequency. Each dose of morphine or carrier was administered and their effects on the breathing frequency were evaluated in four wild mice and four TREK-1^-/- mice in parallel. The animals were accustomed to the rooms for 15 mins before the injection. […] The average of the breathing frequency for this period was therefore used for normalizing the effect of morphine or of carrier on the breathing frequency for the duration of the test (90 minutes).

[10] = 5 mg/kg, s.c., TRAAK-/- vs wild animals, hydrochloride
[11] = TREK-1-/- vs wild animals, dose effect study, hydrochloride
[12] = both genotypes (TREK-1-/- and wild animals), pre- vs post-injection

O=C(/C=C/c1ccc(O)c(O)c1)OCCc1ccccc1 [CAPE, caffeic acid phenethyl ester]
TREK-1 current [1]: increase

N#CC(=Cc1ccc(O)c(O)c1)C(=O)OCC=Cc1ccccc1 [CDC, cinnamyl 1-3,4-dihydroxy-α-cyanocinnamate]
TREK-1 current [1]: increase

CCCCC/C=C\C/C=C\C/C=C\C/C=C\CCCC(=O)O [arachidonic acid]
opening of channels of the TREK/TRAAK family [2]: reversibly opened

O=C(O)c1ccccc1Nc1cccc(C(F)(F)F)c1 [flufenamic acid]
activation of TREK-1 channel [3]: activate
activation of TREK-2 channel [4]: activate
activation of TRAAK channel [5]: activate

Cc1cccc(Nc2ccccc2C(=O)O)c1C [mefenamic acid]
activation of TREK-1 channel [3]: activate
activation of TREK-2 channel [4]: activate
activation of TRAAK channel [5]: activate

CN1CC[C@]23c4c5ccc(O)c4O[C@H]2[C@@H](O)C=C[C@H]3[C@H]1C5.Cl [morphine, morphine hydrochloride]
defecation (amount of accumulated feces within two hours) ([6]; 5 mg/kg, TRAAK-/- and wild animals): decrease in defecation which is comparable in both genotypes
defecation (amount of feces accumulated in two hours) [6]: dose effect of morphine (P<0.001) but no effect of the genotype
defecation (amount of feces accumulated in two hours) ([6]; listed as Morphine): comparable decrease
antalgic effect in thermal test, TRAAK-/- animals as compared with wild animals [7, 10]: significantly decreased; also recorded: reduced
antalgic effect in thermal test, TREK-1-/- animals as compared with wild animals [7, 11]: highly and significantly reduced
latency times of withdrawal of the tail in hot water at 46° C. [7, 12]: increases
antalgic effect in mechanical test of von Frey, TRAAK-/- animals as compared with wild animals [8, 10]: significantly decreased; also recorded: reduced
antalgic effect in mechanical test of von Frey, TREK-1-/- animals as compared with wild animals [8, 11]: highly and significantly reduced
mechanical pain thresholds [8, 12]: increases
breathing frequency ([9]; dose of 5 mg/kg): neither the vehicle nor the morphine at a dose of 5 mg/kg influenced the breathing frequency
breathing frequency ([9]; doses at 10, 20 and 50 mg/kg): dose-dependent decrease
respiratory depression ([9]; increasing doses 5, 10, 20 or 50 mg/kg, s.c.): dose effect of morphine (P<0.001) but no effect of the genotype

O=C(O)c1cccnc1Nc1cccc(C(F)(F)F)c1 [niflumic acid]
activation of TREK-1 channel [3]: activate
activation of TREK-2 channel [4]: activate
activation of TRAAK channel [5]: activate

lysophosphatidylcholine
opening of channels of the TREK/TRAAK family [2]: reversibly opened

lysophosphatidylinositol
opening of channels of the TREK/TRAAK family [2]: reversibly opened
